Measurements taken from ChEMBL document CHEMBL1629680, “Role for Fks1 in the intrinsic echinocandin resistance of Fusarium solani as evidenced by hybrid expression in Saccharomyces cerevisiae” (2009).
Values after ≈ are worked out from the molar mass of the structure shown. *1 amine or outer side, *2 acyl side, *3 side chain or, on linkers, in order; H or OH if unused. Where a SMILES comes first, the peptide text is derived from it. Bridges are numbered along the chain shown (N, C = ends). [ ]: non-standard residue; d: D form. The star is where a group is joined. hTyr(3S-OH,4S-OH,3'-OSO3H) = N[C@H](C(=O)O)[C@H](O)[C@@H](O)c1ccc(O)c(OS(=O)(=O)O)c1; Orn(4R-OH,5R-OH) = O=C([C@H](C[C@@H](O)[C@@H](O)N[*:3])N[*:1])[*:2]; Pro(3S-OH,4S-Me) = C[C@H]1CN[C@H](C(=O)O)[C@H]1O; X1 = CCCCCOc1ccc(-c2cc(-c3ccc(C(=O)*)cc3)no2)cc1; Gln(3R-OH) = NC(=O)C[C@@H](O)[C@H](N)C(=O)O; Hyp = O=C(O)[C@@H]1C[C@@H](O)CN1

Legend:
Format in all cases: functional
Saccharomyces cerevisiae [1] = assay: Antimicrobial activity against Saccharomyces cerevisiae BY4742 fks1-F639Y mutant after 24 hrs by broth microdilution assay; conditions: BY4742, 24 h
Saccharomyces cerevisiae [2] = assay: Antimicrobial activity against Saccharomyces cerevisiae BY4742 transfected with Scedosporium prolificans FSK1 gene sequence after 24 hrs by broth microdilution assay; conditions: BY4742, 24 h
Saccharomyces cerevisiae [3] = assay: Antimicrobial activity against Saccharomyces cerevisiae BY4742 fks1delta617-649::URA3 deletant after 24 hrs by broth microdilution assay; conditions: BY4742, 24 h
Nakaseomyces glabratus [4] = assay: Antimicrobial activity against Candida glabrata containing FSK2 after 24 hrs by broth microdilution assay
Saccharomyces cerevisiae [5] = assay: Antimicrobial activity against Saccharomyces cerevisiae BY4742 containing Aspergillus fumigatus fks1617-649 hybrid after 24 hrs by broth microdilution assay; conditions: BY4742, 24 h
Saccharomyces cerevisiae [6] = assay: Antimicrobial activity against Saccharomyces cerevisiae BY4742 containing Candida glabrata fks1-CgS453-649 hybrid after 24 hrs by broth microdilution assay; conditions: BY4742, 24 h
Nakaseomyces glabratus [7] = assay: Antimicrobial activity against Candida glabrata containing fsk2-L588P/F639V mutant after 24 hrs by broth microdilution assay
Saccharomyces cerevisiae [8] = assay: Antimicrobial activity against Saccharomyces cerevisiae BY4742 containing Fusarium solani fks1617-649 hybrid after 24 hrs by broth microdilution assay; conditions: BY4742, 24 h
Saccharomyces cerevisiae [9] = assay: Antimicrobial activity against Saccharomyces cerevisiae BY4742 containing Fusarium solani fks1-FS453-649 with F639 mutant after 24 hrs by broth microdilution assay; conditions: BY4742, 24 h
Saccharomyces cerevisiae [10] = assay: Antimicrobial activity against Saccharomyces cerevisiae BY4742 containing Fusarium solani fks1617-649 with F639 mutant after 24 hrs by broth microdilution assay; conditions: BY4742, 24 h
Saccharomyces cerevisiae [11] = assay: Antimicrobial activity against Saccharomyces cerevisiae BY4742 containing Candida glabrata fks1-CgR453-649 hybrid after 24 hrs by broth microdilution assay; conditions: BY4742, 24 h
Saccharomyces cerevisiae [12] = assay: Antimicrobial activity against Saccharomyces cerevisiae BY4742 containing Fusarium solani fks1-FS453-649 hybrid after 24 hrs by broth microdilution assay; conditions: BY4742, 24 h
Saccharomyces cerevisiae [13] = assay: Antimicrobial activity against Saccharomyces cerevisiae BY4742 fks1-F639F wild type after 24 hrs by broth microdilution assay; conditions: BY4742, 24 h
Saccharomyces cerevisiae [14] = assay: Antimicrobial activity against Saccharomyces cerevisiae BY4742 containing Aspergillus fumigatus fks1delta453-649 hybrid after 24 hrs by broth microdilution assay; conditions: BY4742, 24 h

SMILES | MIC (Saccharomyces cerevisiae [1]) [µg/mL] | MIC (Saccharomyces cerevisiae [2]) [µg/mL] | MIC (Saccharomyces cerevisiae [3]) [µg/mL] | MIC (Nakaseomyces glabratus [4]) [µg/mL] | MIC (Saccharomyces cerevisiae [5]) [µg/mL] | MIC (Saccharomyces cerevisiae [6]) [µg/mL] | MIC (Nakaseomyces glabratus [7]) [µg/mL] | MIC (Saccharomyces cerevisiae [8]) [µg/mL] | MIC (Saccharomyces cerevisiae [9]) [µg/mL] | MIC (Saccharomyces cerevisiae [10]) [µg/mL] | MIC (Saccharomyces cerevisiae [11]) [µg/mL] | MIC (Saccharomyces cerevisiae [12]) [µg/mL] | MIC (Saccharomyces cerevisiae [13]) [µg/mL] | MIC (Saccharomyces cerevisiae [14]) [µg/mL]
CCCCCOc1ccc(-c2cc(-c3ccc(C(=O)N[C@H]4C[C@@H](O)[C@@H](O)NC(=O)[C@@H]5[C@@H](O)[C@@H](C)CN5C(=O)[C@H]([C@H](O)CC(N)=O)NC(=O)[C@H]([C@H](O)[C@@H](O)c5ccc(O)c(OS(=O)(=O)O)c5)NC(=O)[C@@H]5C[C@@H](O)CN5C(=O)[C@H]([C@@H](C)O)NC4=O)cc3)no2)cc1 [MICAFUNGIN] (X1-[Orn(4R-OH,5R-OH)]T[Hyp][hTyr(3S-OH,4S-OH,3'-OSO3H)][Gln(3R-OH)][Pro(3S-OH,4S-Me)]; lactam 1-C) | 0.5 (≈ 0.394 µM) | 0.062 (≈ 0.0488 µM) | 0.062 (≈ 0.0488 µM) | 0.031 (≈ 0.0244 µM) | 0.031 (≈ 0.0244 µM) | 0.016 (≈ 0.0126 µM) | 0.062 (≈ 0.0488 µM) | 0.25 (≈ 0.197 µM) | 0.008 (≈ 0.0063 µM) | 0.031 (≈ 0.0244 µM) | 0.062 (≈ 0.0488 µM) | 0.031 (≈ 0.0244 µM) | 0.062 (≈ 0.0488 µM) | 0.062 (≈ 0.0488 µM)
CC[C@H](C)C[C@H](C)CCCCCCCCC(=O)N[C@H]1C[C@@H](O)[C@@H](NCCN)NC(=O)[C@@H]2[C@@H](O)CCN2C(=O)[C@H]([C@H](O)CCN)NC(=O)[C@H]([C@H](O)[C@@H](O)c2ccc(O)cc2)NC(=O)[C@@H]2C[C@@H](O)CN2C(=O)[C@H]([C@@H](C)O)NC1=O [CASPOFUNGIN] | 0.5 (≈ 0.457 µM) | 0.031 (≈ 0.0284 µM) | 0.002 (≈ 0.00183 µM) | 0.062 (≈ 0.0567 µM) | 0.008 (≈ 0.00732 µM) | 0.031 (≈ 0.0284 µM) | 0.5 (≈ 0.457 µM) | 0.25 (≈ 0.229 µM) | 0.001 (≈ 0.000915 µM) | 0.008 (≈ 0.00732 µM) | 0.25 (≈ 0.229 µM) | 0.008 (≈ 0.00732 µM) | 0.031 (≈ 0.0284 µM) | 0.002 (≈ 0.00183 µM)
